Results reported in PMC6839502 (Journal of Alzheimer's Disease, 2019).

Experiment: Safety and tolerability
Format: in vivo, human
[1] = 5 mg QD 14 days, healthy adults, 8 evaluable
[2] = 15 mg QD 14 days, healthy adults, 8 evaluable
[3] = 50 mg QD 14 days, healthy adults, 8 evaluable
[4] = 50 mg QD 14 days, healthy older subjects, 10 evaluable
[5] = 125 mg QD 14 days, healthy adults, 12 evaluable
[6] = 125 mg QD 14 days, healthy older subjects, 8 evaluable
[7] = 275 mg QD 14 days, healthy adults, 9 evaluable
[8] = single 3 mg, healthy adults, 5 evaluable
[9] = single 12 mg, healthy adults, 6 evaluable
[10] = single 40 mg, healthy adults, 6 evaluable
[11] = single 160 mg, healthy adults, 6 evaluable
[12] = single 200 mg fed, healthy adults, 6 evaluable
[13] = single 200 mg, healthy adults, 6 evaluable
[14] = single 400 mg, healthy adults, 6 evaluable
[15] = single 540 mg, healthy adults, 6 evaluable
[16] = studies B8271001 and B8271004 overall

C[C@H]1C[C@H]2CSC(N)=N[C@@]2(c2nc(NC(=O)c3ccc(OC(F)F)cn3)cs2)CO1 [PF-06751979]
Back pain, all-causality [1]: 0
Fatigue (MedDRA preferred term), all-causality [1]: 0
Headache (MedDRA preferred term), all-causality [1]: 0
Hepatic enzyme increased, all-causality [1]: 0
Insomnia, all-causality [1]: 0
Musculoskeletal discomfort, all-causality [1]: 0
Number of AEs, all-causality treatment-emergent [1]: 1 (1)
Number of AEs, treatment related [1]: 1 (1)
Number of subjects with AEs, all-causality [1]: 1 (1)
Number of subjects with AEs, treatment related [1]: 1 (1)
Number of subjects with SAEs [1]: 0
Number of subjects with discontinuation due to AEs [1]: 0
Number of subjects with severe AEs [1]: 0
Number of subjects with temporary discontinuation or dose reduction due to AEs [1]: 0
Paresthesia, all-causality [1]: 0
Procedural pain, all-causality [1]: 0
Back pain, all-causality [2]: 0
Fatigue (MedDRA preferred term), all-causality [2]: 0
Headache (MedDRA preferred term), all-causality [2]: 1 (1)
Headache, treatment related [2]: 1 (1)
Hepatic enzyme increased, all-causality [2]: 1 (1)
Hepatic enzyme increased, treatment related [2]: 1 (1)
Insomnia, all-causality [2]: 0
Musculoskeletal discomfort, all-causality [2]: 0
Number of AEs, all-causality treatment-emergent [2]: 2 (2)
Number of AEs, treatment related [2]: 2 (2)
Number of subjects with AEs, all-causality [2]: 2 (2)
Number of subjects with AEs, treatment related [2]: 2 (2)
Number of subjects with SAEs [2]: 0
Number of subjects with discontinuation due to AEs [2]: 0
Number of subjects with severe AEs [2]: 0
Number of subjects with temporary discontinuation or dose reduction due to AEs [2]: 0
Paresthesia, all-causality [2]: 0
Procedural pain, all-causality [2]: 0
ALT peak, one subject (15 mg QD, Day 21): 7.7 ×ULN
AST peak, one subject (15 mg QD, Day 21): 5.6 ×ULN
Back pain, all-causality [3]: 0
Fatigue (MedDRA preferred term), all-causality [3]: 0
Headache (MedDRA preferred term), all-causality [3]: 0
Hepatic enzyme increased, all-causality [3]: 0
Insomnia, all-causality [3]: 0
Musculoskeletal discomfort, all-causality [3]: 0
Number of AEs, all-causality treatment-emergent [3]: 1 (1)
Number of AEs, treatment related [3]: 1 (1)
Number of subjects with AEs, all-causality [3]: 1 (1)
Number of subjects with AEs, treatment related [3]: 1 (1)
Number of subjects with SAEs [3]: 0
Number of subjects with discontinuation due to AEs [3]: 0
Number of subjects with severe AEs [3]: 0
Number of subjects with temporary discontinuation or dose reduction due to AEs [3]: 0
Paresthesia, all-causality [3]: 0
Procedural pain, all-causality [3]: 0
Abnormal dreams, all-causality [4]: 2 (2)
Abnormal dreams, treatment related [4]: 2 (2)
Dizziness, all-causality [4]: 1
Dizziness, treatment related [4]: 0
Fatigue (MedDRA preferred term), all-causality [4]: 1 (1)
Fatigue, treatment related [4]: 1 (1)
Headache (MedDRA preferred term), all-causality [4]: 1
Headache, treatment related [4]: 0
Number of AEs, all-causality treatment-emergent [4]: 15
Number of AEs, treatment related [4]: 9
Number of subjects with AEs, all-causality [4]: 7
Number of subjects with AEs, treatment related [4]: 6
Number of subjects with SAEs [4]: 0
Number of subjects with discontinuation due to AEs [4]: 0
Number of subjects with severe AEs [4]: 0
Number of subjects with temporary discontinuation or dose reduction due to AEs [4]: 0
Back pain, all-causality [5]: 2
Back pain, treatment related [5]: 0
Fatigue (MedDRA preferred term), all-causality [5]: 2 (2)
Fatigue, treatment related [5]: 2 (2)
Headache (MedDRA preferred term), all-causality [5]: 3
Headache, treatment related [5]: 1
Hepatic enzyme increased, all-causality [5]: 1
Hepatic enzyme increased, treatment related [5]: 0
Insomnia, all-causality [5]: 1 (1)
Insomnia, treatment related [5]: 1 (1)
Musculoskeletal discomfort, all-causality [5]: 3
Musculoskeletal discomfort, treatment related [5]: 0
Number of AEs, all-causality treatment-emergent [5]: 22
Number of AEs, treatment related [5]: 6
Number of subjects with AEs, all-causality [5]: 10
Number of subjects with AEs, treatment related [5]: 4
Number of subjects with SAEs [5]: 0
Number of subjects with discontinuation due to AEs [5]: 0
Number of subjects with severe AEs [5]: 0
Number of subjects with temporary discontinuation or dose reduction due to AEs [5]: 0
Paresthesia, all-causality [5]: 1
Paresthesia, treatment related [5]: 0
Procedural pain, all-causality [5]: 2
Procedural pain, treatment related [5]: 0
Abnormal dreams, all-causality [6]: 0
Dizziness, all-causality [6]: 0
Fatigue (MedDRA preferred term), all-causality [6]: 1 (1)
Fatigue, treatment related [6]: 1 (1)
Headache (MedDRA preferred term), all-causality [6]: 1 (1)
Headache, treatment related [6]: 1 (1)
Number of AEs, all-causality treatment-emergent [6]: 11
Number of AEs, treatment related [6]: 7
Number of subjects with AEs, all-causality [6]: 6
Number of subjects with AEs, treatment related [6]: 5
Number of subjects with SAEs [6]: 0
Number of subjects with discontinuation due to AEs [6]: 0
Number of subjects with severe AEs [6]: 0
Number of subjects with temporary discontinuation or dose reduction due to AEs [6]: 0
Back pain, all-causality [7]: 0
Fatigue (MedDRA preferred term), all-causality [7]: 0
Headache (MedDRA preferred term), all-causality [7]: 1
Headache, treatment related [7]: 0
Hepatic enzyme increased, all-causality [7]: 1 (1)
Hepatic enzyme increased, treatment related [7]: 1 (1)
Insomnia, all-causality [7]: 0
Musculoskeletal discomfort, all-causality [7]: 2
Musculoskeletal discomfort, treatment related [7]: 0
Number of AEs, all-causality treatment-emergent [7]: 18
Number of AEs, treatment related [7]: 13
Number of subjects with AEs, all-causality [7]: 8
Number of subjects with AEs, treatment related [7]: 7
Number of subjects with SAEs [7]: 0
Number of subjects with discontinuation due to AEs [7]: 1 (1)
Number of subjects with discontinuation due to AEs, treatment related [7]: 1 (1)
Number of subjects with severe AEs [7]: 0
Number of subjects with temporary discontinuation or dose reduction due to AEs [7]: 0
Paresthesia, all-causality [7]: 1 (1)
Paresthesia, treatment related [7]: 1 (1)
Procedural pain, all-causality [7]: 0
Rash leading to discontinuation, one subject (275 mg QD, 6 h post-dose on Day 11, deemed treatment related): moderate maculopapular rash
AST elevation, one subject (275 mg QD, Day 14, after discontinuation on Day 11): 1.15 x ULN
Fatigue (MedDRA preferred term), all-causality [8]: 0
Headache (MedDRA preferred term), all-causality [8]: 0
Number of AEs, all-causality treatment-emergent [8]: 1
Number of AEs, treatment related [8]: 0
Number of subjects with AEs, all-causality [8]: 1
Number of subjects with AEs, treatment related [8]: 0
Number of subjects with SAEs [8]: 0
Number of subjects with discontinuation due to AEs [8]: 0
Number of subjects with severe AEs [8]: 0
Number of subjects with temporary discontinuation or dose reduction due to AEs [8]: 0
Fatigue (MedDRA preferred term), all-causality [9]: 0
Headache (MedDRA preferred term), all-causality [9]: 0
Number of AEs, all-causality treatment-emergent [9]: 0
Number of subjects with AEs, all-causality [9]: 0
Number of subjects with SAEs [9]: 0
Number of subjects with discontinuation due to AEs [9]: 0
Number of subjects with severe AEs [9]: 0
Number of subjects with temporary discontinuation or dose reduction due to AEs [9]: 0
Fatigue (MedDRA preferred term), all-causality [10]: 0
Headache (MedDRA preferred term), all-causality [10]: 0
Number of AEs, all-causality treatment-emergent [10]: 0
Number of subjects with AEs, all-causality [10]: 0
Number of subjects with SAEs [10]: 0
Number of subjects with discontinuation due to AEs [10]: 0
Number of subjects with severe AEs [10]: 0
Number of subjects with temporary discontinuation or dose reduction due to AEs [10]: 0
Fatigue (MedDRA preferred term), all-causality [11]: 0
Headache (MedDRA preferred term), all-causality [11]: 0
Number of AEs, all-causality treatment-emergent [11]: 0
Number of subjects with AEs, all-causality [11]: 0
Number of subjects with SAEs [11]: 0
Number of subjects with discontinuation due to AEs [11]: 0
Number of subjects with severe AEs [11]: 0
Number of subjects with temporary discontinuation or dose reduction due to AEs [11]: 0
Fatigue (MedDRA preferred term), all-causality [12]: 1 (1)
Fatigue, treatment related [12]: 1 (1)
Headache (MedDRA preferred term), all-causality [12]: 0
Number of AEs, all-causality treatment-emergent [12]: 7
Number of AEs, treatment related [12]: 4
Number of subjects with AEs, all-causality [12]: 4 (4)
Number of subjects with AEs, treatment related [12]: 4 (4)
Number of subjects with SAEs [12]: 0
Number of subjects with discontinuation due to AEs [12]: 0
Number of subjects with severe AEs [12]: 0
Number of subjects with temporary discontinuation or dose reduction due to AEs [12]: 0
Fatigue (MedDRA preferred term), all-causality [13]: 2 (2)
Fatigue, treatment related [13]: 2 (2)
Headache (MedDRA preferred term), all-causality [13]: 0
Number of AEs, all-causality treatment-emergent [13]: 5
Number of AEs, treatment related [13]: 3
Number of subjects with AEs, all-causality [13]: 3 (3)
Number of subjects with AEs, treatment related [13]: 3 (3)
Number of subjects with SAEs [13]: 0
Number of subjects with discontinuation due to AEs [13]: 0
Number of subjects with severe AEs [13]: 0
Number of subjects with temporary discontinuation or dose reduction due to AEs [13]: 0
Fatigue (MedDRA preferred term), all-causality [14]: 0
Headache (MedDRA preferred term), all-causality [14]: 1 (1)
Headache, treatment related [14]: 1 (1)
Number of AEs, all-causality treatment-emergent [14]: 5 (5)
Number of AEs, treatment related [14]: 5 (5)
Number of subjects with AEs, all-causality [14]: 2 (2)
Number of subjects with AEs, treatment related [14]: 2 (2)
Number of subjects with SAEs [14]: 0
Number of subjects with discontinuation due to AEs [14]: 0
Number of subjects with severe AEs [14]: 0
Number of subjects with temporary discontinuation or dose reduction due to AEs [14]: 0
Fatigue (MedDRA preferred term), all-causality [15]: 0
Headache (MedDRA preferred term), all-causality [15]: 2 (2)
Headache, treatment related [15]: 2 (2)
Number of AEs, all-causality treatment-emergent [15]: 10
Number of AEs, treatment related [15]: 6
Number of subjects with AEs, all-causality [15]: 6
Number of subjects with AEs, treatment related [15]: 3
Number of subjects with SAEs [15]: 0
Number of subjects with discontinuation due to AEs [15]: 0
Number of subjects with severe AEs [15]: 0
Number of subjects with temporary discontinuation or dose reduction due to AEs [15]: 0
Findings in ECGs or vital signs (studies B8271001 and B8271004): no clinically meaningful findings
SAEs or deaths [16]: no SAEs or deaths were reported
Severity of TEAEs [16]: mild to moderate
